Data published in publication PMC3816703, “Toxicity Studies on Novel N-Substituted Bicyclo-Heptan-2-Amines at NMDA Receptors” (Pharmaceuticals, 2013).
Read-outs that look alike come from different tables or passages of the source.

Columns and labels:
NMDA receptor = tested on: NMDA receptor; set-up: method as in PMID 21496213; conditions: among compounds 5a–f; cited from earlier work
N2a cells = assay: MTT cell viability assay on N2a cells (24 h treatment); format: cell-based, Mouse; conditions: Mus musculus, read-out: MTT test (IC50)
Description: (§1) To examine neuronal cell toxicity, N2a cells were exposed to each of compounds 5a–f or memantine for 24 h at 0–500 µM concentrations, and cell viability was measured by MTT assay. In the present experiments, increasing the concentration of antagonists increased the toxicity of both test compounds and memantine in dose dependent manner (Figure 4A,B). […] No significant reduction in cell concentration was observed using phase contrast microscopy (Figure 5). The mean percentage of viable cells was 94.6 ± 0.29 (p > 0.05), 91.6 ± 0.26 (p > 0.05) for memantine and 93 ± 0.35 (p > 0.05), 77 ± 0.35 (p > 0.05) for compound 5a at 10 and 50 µM, respectively, as compared to untreated cells.
(§2) Mouse Neuro-2a (CCL-131, ATCC, Manassas, VA, USA) and MDCK (CCL-34, ATCC) were used in this study. The cells were routinely propagated using Dulbecco’s Modification of Eagle’s Medium (DMEM, ATCC) for N2a and Eagle’s Minimum Essential Medium (EMEM, ATCC) for MDCK cells, supplemented with 10% fetal bovine serum (FBS, ATCC) and 1% penicillin/ streptomycin (Gibco, Grand Island, NY, USA) in 100 cm^2 Petri-dishes (Corning, Tewksbury, MA, USA) at 37 °C in 5% CO2. For neuronal differentiation, N2a cells were cultivated in DMEM supplemented with 2% FBS in the presence of 20 µM retinoic acid (RA, Sigma, St. Louis, MO, USA).
(§3) All six compounds 5a–f were obtained as salts. Stock solutions (1 mM) were prepared in double distilled water. The treatment concentrations for the compounds and for memantine (Sigma) were 10, 50, 100, 200, 300, and 500 μM. Cells were allowed to attach overnight prior to treatment. H2O2 served as positive control. Working concentrations were prepared immediately prior to treatment by dilution with medium.
(§4) The MTT (3-(4,5-dimethylthiazole-2-yl)-2,5-diphenyltetrazolium bromide) assay is a well-documented and widely-used cell viability assay. MTT is incorporated into the cell by endocytosis and is reduced by mitochondrial enzymes in living cells to a blue colored formazan precipitate. The absorbance of dissolved formazan in the visible region correlates with the number of intact alive cells. Cells were plated at a concentration of 13,000 to 20,000 cells/well on a 96-well round-bottom plate (Fisher, Pittsburgh, PA, USA). The MTT assay (ATCC, 30-1010K) was performed according to the manufacturer’s instructions. The following determinants were optimized for each cell line: plating cell concentration; incubation time with MTT reagent, and incubation time with detergent reagent. Absorbance was recorded at 570 nm by a microtiter plate reader (VICTOR, PerkinElmer, Waltham, MA, USA). The number of surviving cells is directly proportional to the level of the formazan product generated. Each experiment was repeated on three separate occasions and results are presented as the mean absorbance ± S.E.M.
(§5) The Student’s t test was applied to evaluate the significance of differences among each group. A p value of 0.05 or less was considered to be significant. Error bars in the graphs are expressed as S.E.M. with experiments performed in triplicate. IC50 values were calculated according to the SoftMax Pro GxP analytical software. Standard Curves were plotted using the OD Mean Value (Y) versus Concentration (X) and applying a 4-Parameter fit with a variable weight source curve fit option of 1/Y^2. Results are presented as mean ± S.E.M.

[1] = as above; format: cell-based, Mouse; conditions: mouse, N2a cells, 24 h, as compared to untreated cells, read-out: mean percentage of viable cells
Description: as §1, §2, §3, §4, §5

MDCK cells = assay: MTT cell viability assay on MDCK cells (24 h treatment); format: cell-based, Canine; conditions: for IC50: Canis lupus familiaris, read-out: MTT test (IC50)
Description: (§6) MDCK cells were used to simulate toxicities of the novel NMDA receptor uncompetitive antagonists 5a–f on BBB in vitro [18, 19]. We treated cells with 0–500 µM concentrations of test compound or memantine for 24 h. Cell viability was assessed by the capacity of cells to reduce the MTT dye (Figure 2A,B). […] It is known, that under therapeutic conditions in patients, the serum level of memantine is about 1 µM [20]. Since the binding potencies of some of the target compounds are in same range (micromolar) as that of memantine, the 1 µM concentration was used as reference in estimating possible therapeutic indexes. […] The mean percentage of viable cells was 101 ± 0.24 (p > 0.05), 95.6 ± 0.25 (p > 0.05) for memantine and 104 ± 0.11 (p > 0.05), 105 ± 0.06 (p > 0.05) for compound 5a at 10 and 50 µM, respectively, as compared to untreated cells.
as §2, §3, §4, §5

[2] = as above; format: cell-based, Canine; conditions: dog, MDCK cells, 24 h, as compared to untreated cells, read-out: mean percentage of viable cells
Description: as §6, §2, §3, §4, §5

[3] = tested on: MES (maximal electroshock)-induced neural damage; set-up: method as in PMID 21496213; conditions: rodents; among compounds 5a–f; cited from earlier work
[4] = patients; cited from earlier work
[5] = N2a cells, 24 h treatment, mean n = 3, concentration yielding 50% inhibition of mitochondrial enzyme activity

c1ccc(C2(NCCN3CCCCC3)CC3CCC2C3)cc1 (centres unmarked) [5a, 2-phenyl-N-(2-(piperidin-1-yl)ethyl)bicyclo[2.2.1]heptan-2-amine]
affinity for NMDA receptor (NMDA receptor): highest affinity
IC50 (N2a cells; N2a, 24 h): 154 µM
viability at 24 h, 10 µM [1]: 93 ± 0.35%
viability at 24 h, 50 µM [1]: 77 ± 0.35%
IC50 (MDCK cells; MDCK, 24 h): 155 µM
viability at 24 h, 10 µM [2]: 104 ± 0.11%
viability at 24 h, 50 µM [2]: 105 ± 0.06%
protection from MES (maximal electroshock)-induced neural damage [3]: greatest degree of protection

Fc1ccc(C2(NCCN3CCCCC3)CC3CCC2C3)cc1 (centres unmarked) [5b]
IC50 (N2a cells; N2a, 24 h): 291 µM
IC50 (MDCK cells; MDCK, 24 h): 201 µM

c1ccc(C2(NCCN3CCCC3)CC3CCC2C3)cc1 (centres unmarked) [5e, 2-phenyl-N-(2-(pyrrolidin-1-yl)ethyl) bicyclo[2.2.1]heptan-2-amine]
IC50 (N2a cells; N2a, 24 h): 165 µM
IC50 (MDCK cells; MDCK, 24 h): 313 µM

c1ccc(C2(NCCN3CCOCC3)CC3CCC2C3)cc1 (centres unmarked) [5c, N-(2-morpholinoethyl)-2-phenylbicyclo [2.2.1]heptan-2-amine]
IC50 (N2a cells; N2a, 24 h): 253 µM
IC50 (MDCK cells; MDCK, 24 h): 424 µM

Fc1ccc(C2(NCCN3CCOCC3)CC3CCC2C3)cc1 (centres unmarked) [5d, 2-(4-fluorophenyl)-N-(2-morpholino-ethyl)bicyclo [2.2.1]heptan-2-amine]
IC50 (N2a cells; [5]): > 1000 µM
IC50 (MDCK cells; MDCK, 24 h): > 1000 µM

CC12CC3CC(C)(C1)CC(N)(C3)C2 [memantine, 1-amino-3,5-dimethyladamantine, reference compound]
IC50 (N2a cells; [5]): 219 µM
viability at 24 h, 10 µM [1]: 94.6 ± 0.29%
viability at 24 h, 50 µM [1]: 91.6 ± 0.26%
IC50 (MDCK cells; MDCK cells, 24 h treatment, mean n = 3, concentration yielding 50% inhibition of mitochondrial enzyme activity): 197 µM
concentration above which a concentration dependent decline in numbers of viable cells occurs (MDCK cells; MDCK cells, 0–500 µM, 24 h, MTT): higher than 100 µM
viability at 24 h, 10 µM [2]: 101 ± 0.24%
viability at 24 h, 50 µM [2]: 95.6 ± 0.25%
serum level under therapeutic conditions [4]: about 1 µM

Fc1ccc(C2(NCCN3CCCC3)CC3CCC2C3)cc1 (centres unmarked) [5f]
IC50 (N2a cells; [5]): 71 µM
IC50 (MDCK cells; MDCK, 24 h): 305 µM
